From patent US20250051356A1, “RIFABUTIN ANALOGS FOR THE TREATMENT OF DISEASE” (priority 2021, published 2025)
Values after ≈ are worked out from the molar mass of the structure shown. Read-outs that look alike come from different tables or passages of the source.

How the values were obtained:
Assay type in all cases: cell-based
M. kansasii (ATCC 12478) = assay: MIC against M. kansasii in CAMHB + ADC; settings: Mycobacterium kansasii
M. xenopi (ATCC 19250) = assay: MIC against M. xenopi in CAMHB + ADC; settings: Mycobacterium xenopi
M. avium (ATCC 25291) = assay: MIC against M. avium in CAMHB + ADC; settings: Mycobacterium avium
[1] = tested on: A. baumannii (HUMC1 strain); assay: MIC by broth microdilution against A. baumannii in RPMI + 10% FCS; settings: Acinetobacter baumannii, read-out: MIC A. baumannii
[2] = tested on: M. abscessus subsp. abscessus ATCC 19977; assay: MIC against M. abscessus in Middlebrook 7H9 + ADC; settings: Mycobacteroides abscessus
[3] = tested on: S. aureus (UAMS-1625 strain); assay: MIC by broth microdilution against S. aureus; settings: Staphylococcus aureus, read-out: MIC S. aureus
[4] = ATCC12478, ATCC 12478, CAMHB + ADC (5%), read-out: MIC M. kansasii
[5] = ATCC19250, ATCC 19250, CAMHB + ADC (5%), read-out: MIC M. xenopi
[6] = ATCC25291, ATCC 25291, CAMHB + ADC (5%), read-out: MIC M. avium
[7] = ATCC19977, ATCC 19977, 7H9 + ADC, read-out: MIC M. abscessus
[8] = ATCC12478, read-out: MIC M. kansasii
[9] = ATCC19250, read-out: MIC M. xenopi
[10] = ATCC25291, read-out: MIC M. avium
[11] = ATCC19977, read-out: MIC M. abscessus

| SMILES | MIC (M. kansasii (ATCC 12478); [4]) [µg/mL] | MIC (M. xenopi (ATCC 19250); [5]) [µg/mL] | MIC (M. avium (ATCC 25291); [6]) [µg/mL] | MIC ([1]; HUMC1 strain, RPMI + 10% FCS) [µg/mL] | MIC [2, 7] [µg/mL] | MIC [3] [µg/mL] | MIC (M. kansasii (ATCC 12478); [8]) [µg/mL] | MIC (M. xenopi (ATCC 19250); [9]) [µg/mL] | MIC (M. avium (ATCC 25291); [10]) [µg/mL] | MIC [1] [µg/mL] | MIC [2, 11] [µg/mL] |
| --- | --- | --- | --- | --- | --- | --- | --- | --- | --- | --- | --- |
| CO[C@H]1/C=C/O[C@@]2(C)Oc3c(C)c(O)c4c(c3C2=O)C2=NC3(CCN(CC(C)C)CC3)NC2=C(NC(=O)/C(C)=C\C=C\[C@H](C)[C@H](O)[C@@H](C)[C@@H](O)[C@@H](C)[C@H](OC(=O)CC(=O)N2CCN(c3ccccc3)CC2)[C@@H]1C)C4=O [Compound 11] | 0.008 | 0.06 | 0.125 | 0.016 | 0.125 | 0.25 (≈ 0.241 µM) |  |  |  |  |  |
| CO[C@H]1/C=C/O[C@@]2(C)Oc3c(C)c(O)c4c(c3C2=O)C2=NC3(CCN(CC(C)C)CC3)NC2=C(NC(=O)/C(C)=C\C=C\[C@H](C)[C@H](O)[C@@H](C)[C@@H](O)[C@@H](C)[C@H](OC(=O)CC(=O)N2CCC(N(C)c3ccccc3)CC2)[C@@H]1C)C4=O [Compound 14] | 0.002 | 0.03 | 0.06 | 0.06 | 0.125 | 0.5 (≈ 0.47 µM) |  |  |  |  |  |
| CO[C@H]1/C=C/O[C@@]2(C)Oc3c(C)c(O)c4c(c3C2=O)C2=NC3(CCN(CC(C)C)CC3)NC2=C(NC(=O)/C(C)=C\C=C\[C@H](C)[C@H](O)[C@@H](C)[C@@H](O)[C@@H](C)[C@H](OC(=O)C(C)C(=O)N2CCC(N(C)c3ccccc3)CC2)[C@@H]1C)C4=O (some centres unmarked) [Compound 40] | 0.001 | 0.03 | 0.06 | 0.03 | 0.125 | 0.5 (≈ 0.464 µM) |  |  |  |  |  |
| CO[C@H]1/C=C/O[C@@]2(C)Oc3c(C)c(O)c4c(c3C2=O)C2=NC3(CCN(CC(C)C)CC3)NC2=C(NC(=O)/C(C)=C\C=C\[C@H](C)[C@H](O)[C@@H](C)[C@@H](O)[C@@H](C)[C@H](OC(=O)CC(=O)N2CCC(Nc3ccccc3)CC2)[C@@H]1C)C4=O [Compound 44] |  |  |  |  |  | 0.25 (≈ 0.238 µM) | 0.004 | 0.03 | 0.06 | 0.008 | 0.25 |
| CO[C@H]1/C=C/O[C@@]2(C)Oc3c(C)c(O)c4c(c3C2=O)C2=NC3(CCN(CC(C)C)CC3)NC2=C(NC(=O)/C(C)=C\C=C\[C@H](C)[C@H](O)[C@@H](C)[C@@H](O)[C@@H](C)[C@H](OC(=O)CC(=O)N2CCC(n3nnc5cc(C(F)(F)F)ccc53)CC2)[C@@H]1C)C4=O [Compound 49] | 0.008 | 0.03 | 0.06 | 0.25 | 0.25 | 1 (≈ 0.875 µM) |  |  |  |  |  |
| CO[C@H]1/C=C/O[C@@]2(C)Oc3c(C)c(O)c4c(c3C2=O)C2=NC3(CCN(CC(C)C)CC3)NC2=C(NC(=O)/C(C)=C\C=C\[C@H](C)[C@H](O)[C@@H](C)[C@@H](O)[C@@H](C)[C@H](OC(=O)CC(=O)N2CCC(Cc3ccccc3)CC2)[C@@H]1C)C4=O [Compound 50] |  |  |  |  |  | 2 (≈ 1.91 µM) | 0.004 | 0.03 | 0.06 | 0.06 | 0.125 |
| CO[C@H]1/C=C/O[C@@]2(C)Oc3c(C)c(O)c4c(c3C2=O)C2=NC3(CCN(CC(C)C)CC3)NC2=C(NC(=O)/C(C)=C\C=C\[C@H](C)[C@H](O)[C@@H](C)[C@@H](O)[C@@H](C)[C@H](OC(=O)CC(=O)N2CCC3(CC2)Cc2ccccc2C3)[C@@H]1C)C4=O [Compound 52] | 0.002 | 0.03 | 0.03 | 0.016 | 0.125 | 0.5 (≈ 0.472 µM) |  |  |  |  |  |
| CO[C@H]1/C=C/O[C@@]2(C)Oc3c(C)c(O)c4c(c3C2=O)C2=NC3(CCN(CC(C)C)CC3)NC2=C(NC(=O)/C(C)=C\C=C\[C@H](C)[C@H](O)[C@@H](C)[C@@H](O)[C@@H](C)[C@H](OC(=O)CC(=O)N2CCC(O)(Cc3ccccc3)CC2)[C@@H]1C)C4=O [Compound 54] | 0.008 |  | 0.06 | 0.008 | 0.25 | 0.125 (≈ 0.117 µM) |  | 0.125 |  |  |  |
| CO[C@H]1/C=C/O[C@@]2(C)Oc3c(C)c(O)c4c(c3C2=O)C2=NC3(CCN(CC(C)C)CC3)NC2=C(NC(=O)/C(C)=C\C=C\[C@H](C)[C@H](O)[C@@H](C)[C@@H](O)[C@@H](C)[C@H](OC(=O)CC(=O)N2CCC(C(=O)c3ccccc3)CC2)[C@@H]1C)C4=O [Compound 55] | 0.016 | 0.06 | 1 | 0.016 | 0.25 | 0.5 (≈ 0.471 µM) |  |  |  |  |  |
| CO[C@H]1/C=C/O[C@@]2(C)Oc3c(C)c(O)c4c(c3C2=O)C2=NC3(CCN(CC(C)C)CC3)NC2=C(NC(=O)/C(C)=C\C=C\[C@H](C)[C@H](O)[C@@H](C)[C@@H](O)[C@@H](C)[C@H](OC(=O)CC(=O)N2CCC(CCc3ccccc3)CC2)[C@@H]1C)C4=O [Compound 56] | 0.03 | 0.06 | 0.5 | 0.03 | 0.25 | 2 (≈ 1.88 µM) |  |  |  |  |  |
| CO[C@H]1/C=C/O[C@@]2(C)Oc3c(C)c(O)c4c(c3C2=O)C2=NC3(CCN(CC(C)C)CC3)NC2=C(NC(=O)/C(C)=C\C=C\[C@H](C)[C@H](O)[C@@H](C)[C@@H](O)[C@@H](C)[C@H](OC(=O)CC(=O)N2CCC(Oc3ccccc3)CC2)[C@@H]1C)C4=O [Compound 57] |  |  |  |  |  | 0.5 (≈ 0.476 µM) | 0.008 | 0.03 | 0.125 | 0.03 | 0.125 |
| CO[C@H]1/C=C/O[C@@]2(C)Oc3c(C)c(O)c4c(c3C2=O)C2=NC3(CCN(CC(C)C)CC3)NC2=C(NC(=O)/C(C)=C\C=C\[C@H](C)[C@H](O)[C@@H](C)[C@@H](O)[C@@H](C)[C@H](OC(=O)CC(=O)N2CCCN(c3ccc(F)cc3)CC2)[C@@H]1C)C4=O [Compound 66] | 0.016 | 0.06 | 0.125 | 0.016 |  | 0.125 (≈ 0.117 µM) |  |  |  |  | 0.125 |
| CO[C@H]1/C=C/O[C@@]2(C)Oc3c(C)c(O)c4c(c3C2=O)C2=NC3(CCN(CC(C)C)CC3)NC2=C(NC(=O)/C(C)=C\C=C\[C@H](C)[C@H](O)[C@@H](C)[C@@H](O)[C@@H](C)[C@H](OC(=O)CC(=O)N2CCC(OC3CCC(C)CC3)CC2)[C@@H]1C)C4=O (some centres unmarked) [Compound 67] | 0.008 | 0.125 | 0.25 | 0.008 | 0.125 | 0.25 (≈ 0.234 µM) |  |  |  |  |  |
| CO[C@H]1/C=C/O[C@@]2(C)Oc3c(C)c(O)c4c(c3C2=O)C2=NC3(CCN(CC(C)C)CC3)NC2=C(NC(=O)/C(C)=C\C=C\[C@H](C)[C@H](O)[C@@H](C)[C@@H](O)[C@@H](C)[C@H](OC(=O)CC(=O)N2CCN(CCN3CCCCC3)CC2)[C@@H]1C)C4=O [Compound 114] |  |  |  | ≤ 0.002 | 0.5 | 0.125 (≈ 0.117 µM) |  |  |  |  |  |
| CO[C@H]1/C=C/O[C@@]2(C)Oc3c(C)c(O)c4c(c3C2=O)C2=NC3(CCN(CC(C)C)CC3)NC2=C(NC(=O)/C(C)=C\C=C\[C@H](C)[C@H](O)[C@@H](C)[C@@H](O)[C@@H](C)[C@H](OC(=O)CC(=O)N2CCN(CCN3CCOCC3)CC2)[C@@H]1C)C4=O [Compound 115] |  |  |  | ≤ 0.002 | 0.5 | 0.06 (≈ 0.056 µM) |  |  |  |  |  |
| CO[C@H]1/C=C/O[C@@]2(C)Oc3c(C)c(O)c4c(c3C2=O)C2=NC3(CCN(CC(C)C)CC3)NC2=C(NC(=O)/C(C)=C\C=C\[C@H](C)[C@H](O)[C@@H](C)[C@@H](O)[C@@H](C)[C@H](OC(=O)CC(=O)N2CCCN(c3ccncc3)CC2)[C@@H]1C)C4=O [Compound 121] |  |  | 2 | ≤ 0.002 | 0.25 | 0.125 (≈ 0.119 µM) | 0.125 |  |  |  |  |
